Reference: patent publication US20230271969A1, “NITROGEN-CONTAINING FUSED RING DERIVATIVE INHIBITOR, PREPARATION METHOD THEREFOR AND USE THEREOF” (Shanghai Hansoh Biomedical Co., Ltd., priority 2020, published 2023)
Like-named read-outs stand apart in the source and are kept apart here.

Legend:
[1] = Pharmacokinetic assay in SD rats (plasma and brain tissue); assay type: in vivo; settings: rat, po, male SD rats, p.o. 5 mg/kg; for AUC(0-t): read-out: Area under curve AUC0-t; for Tmax: read-out: Peak time tmax; for Cmax: read-out: Plasma concentration Cmax
Procedure: Test Example 4. Pharmacokinetic Assays in SD Rats
SD rats were used as test animals. The in vivo (plasma and brain tissue) pharmacokinetic behavior of the compounds of the present invention was investigated by oral administration of the compound in rats at a dose of 5 mg/kg.
Male SD rats (21 animals per group), purchased from Shanghai JieSiJie Laboratory Animal Co., Ltd., under the Animal Production License Number of SCXK (Shanghai) 2013-0006 No. 311620400001794.
The experimental drug was dissolved in 0.5% CMC-Na (1% Tween 80) by sonication to formulate a clear solution or a homogeneous suspension.
After an overnight fast, male SD rats (21 animals per group) were administered p.o. with the experimental drug at an administration dose of 5 mg/kg and the administration volume of 10 mL/kg.
Rats were sacrificed with CO2 at 0, 0.5, 1, 2, 4, 8 and 24 hours before and after the drug administration. 8 mL of blood was collected by cardiac puncture, placed in EDTA-K2 tubes, and centrifuged at 4° C. at 6,000 rpm for 6 min. Plasma was separated and stored at −80° C. The whole brain tissue was dissected and weighed, and then placed in a 2 mL centrifuge tube and stored at −80° C.
2.6 Sample Processing: • 1) 160 μL of acetonitrile was added to 40 μL of plasma sample for precipitation. After mixing, the sample was centrifuged at 3500×g for 5-20 minutes. • 2) 90 μL of acetonitrile containing internal standard (100 ng/mL) was added to 30 μL of plasma or brain homogenate sample for precipitation. After mixing, the sample was centrifuged at 13,000 rpm for 8 minutes. • 3) 70 μL of water was added to 70 μL of treated supernatant, and mixed by vortex for 10 minutes. Then 20 μL of the sample was analyzed by LC/MS/MS to determine the concentration of the compound to be tested. The LC/MS/MS instrument for analysis was AB Sciex API 4000 Qtrap.
2.7 Liquid Chromatography Analysis: • Liquid chromatography conditions: Shimadzu LC-20AD pump • Chromatographic column: Agilent ZORBAX XDB-C18 (50×2.1 mm, 3.5 μm) Mobile phase: Eluent A was 0.1% formic acid in water, and Eluent B was acetonitrile. • Flow rate: 0.4 mL/min • Elution time: 0-4.0 minutes, the eluate was as follows:
The major pharmacokinetic parameters were calculated by using WinNonlin 6.1, and the results of the pharmacokinetic experiments in rats were shown in Table 3 below: […]

[2] = system: luteinizing hormone (LH) content in plasma; assay: Luteinizing hormone (LH) content in plasma of bilateral ovariectomy (OVX) rats; assay type: in vivo; settings: oral 30 mg/kg, plasma LH 0-8 h
Excerpt: Test Example 5. Effect of the Compounds of the Present Invention on Luteindzing Hormone (LH) Content in Plasma of Bilateral Ovariectomy (OVX) Rats
The objective of this test example was to determine the effect of the compounds on luteinizing hormone (LH) in plasma of bilateral ovarnectomy (OVX) rats.
10-Week-old female bilateral ovariectomy SD rats were purchased from Beijing Vital River Laboratory Animal Technology Co., Ltd. The animals were housed in a SPF grade animal facility with 5 SD rats per cage. The cages, bedding, feed and water were disinfected at high temperatures before use. All animals had free access to food and water.
Drug administration by groups: 10-Week-old female SD rats were subjected to bilateral ovariectomy and used in experiments after 3 weeks. Each SD rat was fasted overnight before the experiment, and then randomly divided into groups (3 rats per group) before the drug administration. Different test compounds were administered orally to each drug administration group at a dose of 30 mg/kg and a volume of 10 mL/kg.
Sample collection: 0.2-0.3 mL of whole blood of the SD rats in each group was collected at 0, 0.5, 1, 2, 4, 8 hours before and after the drug administration, and placed in EDTA-K2 tubes. The tubes were inverted and mixed well, and centrifuged at 4° C. at 5,000 rpm for 5 min. Then the plasma was separated and stored in an ultra-low temperature freezer (−80±10° C.).
Sample detection: All reagents, samples and ELISA plates were equilibrated at room temperature (20-25° C.) for at least 30 min. The sample was thawed, vortexed and centrifuged for use. The standard curve was prepared with Assay buffer C according to the concentration sequence of 10, 5, 2.5, 1.25, 0.625, 0.313 and 0. The sample was diluted by two folds with Sample dilution buffer G and left to stand at room temperature for 10 min. […] The OD values of each well was read at a wavelength of 450 nm with a microplate reader.
The standard curve was plotted by using Graphpad, and the concentration of the sample was calculated. […]

| SMILES | AUC(0-t) ([1]; Brain) [ng·h/mL] | Tmax ([1]; Brain) [h] | Cmax ([1]; Brain) [ng/mL] | AUC(0-t) ([1]; Plasma) [ng·h/mL] | Tmax ([1]; Plasma) [h] | Cmax ([1]; Plasma) [ng/mL] | ΣAUC(ΔLH/LH · h, Mean ± SD) [2] | half-life ([1]; Plasma, read-out: Half life t1/2 (converted)) [min] | MRT ([1]; Plasma, read-out: Mean residence time MRT) [h] |
| --- | --- | --- | --- | --- | --- | --- | --- | --- | --- |
| C[C@@H]1c2nnc(-c3nc4cnc(Cl)cc4s3)n2CCN1C(=O)c1ccc(F)cc1 [Example 37, (R)-(3-(6-Chlorothiazolo[4,5-c]pyridin-2-yl)-8-methyl-5,6-dihydro-[1,2,4]triazolo[4,3-a]pyrazin-7(8H)-yl)(4-fluorophenyl)methanone] | 4200 | 4 | 1640 | 77800 | 8 | 4000 | −0.52 ± 2.24 ΔLH/LH · h |  |  |
| [2H]c1cc(C(=O)N2CCn3c(-c4nc(Cl)ns4)nnc3[C@H]2C)ccc1F [Example 56, (R)-(3-(3-Chloro-1,2,4-thiadiazol-5-yl)-8-methyl-5,6-dihydro-[1,2,4]triazolo[4,3-a]pyrazin-7(8H)-yl)(4-fluorophenyl-3-d)methanone] | 2710 | 1 | 798 | 6150 | 2 | 1170 |  | 186 | 5.1 |
